Assay results reported in patent US10722518B2, “Oxazine derivative for use in the treatment or prevention of cerebral amyloid angiopathy” (Novartis AG, priority 2016, dated 2020).

Test system: amyloid-beta in CD31-positive vessels
Assay: Assessment of CAA in APP23 mice by CD31/NT12 double fluorescence immunohistochemistry and image analysis
Type: in vivo, mouse
Experimental: Amyloid plaques were stained using a rabbit anti-Aβ primary antibody (NT12) which recognizes the C-terminal part of the amyloid peptide (the antibody was raised as described in Schrader-Fischer G and Paganetti P A, 1996, and Schrader-Fischer G et al., 1997). The vascular endothelial cells were detected using a rat anti-CD31 antibody (reference DIA310) from Dianova GmbH (Hamburg, Germany). All stainings were performed using the fully automated instrument Ventana Discovery® Ultra (Roche Diagnostics Schweiz AG, Rotkreuz, Switzerland). All chemicals were provided by Roche Diagnostic.
All study animals were used and brain tissue sections of 3 micrometers were freshly cut and collected on SuperFrost+ slides. The tissues sections were de-paraffinized and rehydrated under solvent-free conditions (EZprep solution) followed by antigen retrieval (demasking) performed by heat retrieval cycles for 32 min in a EDTA based buffer (CC1 solution). Subsequently, slides were blocked for 4 min using the DISCOVERY Inhibitor (reference 07017944001 (Roche)). The primary antibody diluted at 1/10′000 in antibody diluent was manually added on tissue sections and incubated for 1 h at room temperature. A short post-fixation (glutaraldehyde at 0.05%) was performed before applying the multimer UltraMap-anti Rabbit HRP ready to use antibody (reference 05269717001) for 16 min.
Detection was performed using the DISCOVERY FITC® following the manufacturer's recommendations. Slides were then heat denaturated at 92° C. for 20 min before a manual application of the second primary antibody (rat anti-CD31 diluted at 1/1′000 in antibody diluent) and incubated for 1 h. Multimer UltraMap-anti-Rat HRP antibody (reference 05891884001) was used for 20 min to detect CD31 in combination with the DISCOVERY Rhodamine kit (reference 07259883001).
The slides were washed and mounted using Prolong® Gold antifade reagent (reference P36931, ThermoFisher, Switzerland) and further scanned with the Hamamatsu slide scanner instrument (NanoZoomer 2.0 HT, scanning software NDP-Scan Vers. 2.5, Hamamatsu Photonics France, Swiss Office, Solothurn, Switzerland) at the 40× objective. The scanning settings were as follows: the exposure time with the DAPI filter was set at 28.5 ms as well as for the FITC filter and TRITC filter (detection of Rhodamine).
For the quantitative plaque and vessel-associated amyloid-beta evaluation based on image analysis, a proprietary image analysis platform (ASTORIA, Automated Stored Image Analysis) was developed based on MS Visual Studio 2010 and many functions from Matrox MIL V9 libraries (Matrox Inc, Quebec, Canada).
For the beta-amyloid plaque and vessel analysis, the following sequence of steps was performed: • Slides were scanned with Hamamatsu Nanozoomer at 40× magnification. […]

[1] = 0.03 g/kg food, 6 months, all CD31+ vessels
[2] = 0.03 g/kg food, 6 months, large CD31-positive vessels
[3] = 0.03 g/kg vs vehicle, all CD31+ vessels
[4] = 0.03 g/kg vs vehicle, large vessels
[5] = 0.03 g/kg vs vehicle, small + medium vessels

## C[C@@]1(c2nc(NC(=O)c3ncc(C(F)(F)F)cc3Cl)ccc2F)CO[C@@](C)(C(F)(F)F)C(N)=N1 [Compound 1, N-(6-((3R,6R)-5-amino-3,6-dimethyl-6-(trifluoromethyl)-3,6-dihydro-2H-1,4-oxazin-3-yl)-5-fluoropyridin-2-yl)-3-chloro-5-(trifluoromethyl)picolinamide]
0.03 g/kg food, 6 months
  % of large vessels with 0% Aβ: 9.14 ± 9.14%
  % of large vessels with 1-10% Aβ: 17.4 ± 1.63%
  % of large vessels with 10-25% Aβ: 11.2 ± 1.68%
  % of large vessels with 25-50% Aβ: 17.5 ± 2.63%
  % of large vessels with 50-75% Aβ: 27.7 ± 1.97%
  % of large vessels with >10% Aβ: 73.5 ± 3.4%
  % of large vessels with >75% Aβ: 17.0 ± 2.92%
  % of small + medium vessels with 0% Aβ: 63.7 ± 2.83%
  % of small + medium vessels with 1-10% Aβ: 22.3 ± 2.65%
  % of small + medium vessels with 10-25% Aβ: 4.86 ± 0.48%
  % of small + medium vessels with 25-50% Aβ: 3.55 ± 0.35%
  % of small + medium vessels with 50-75% Aβ: 2.5 ± 0.31%
  % of small + medium vessels with >10% Aβ: 14.0 ± 1.01%
  % of small + medium vessels with >75% Aβ: 3.11 ± 0.44%
  CAA Frequency (number small + medium vessels with >10% Aβ normalized to sample area, *10^7): 91 ± 5.9
  Number of large CD31+ vessels (normalized to total CD31 positive vessel numbers in %): 1.89 ± 0.17%
  Number of small + medium CD31+ vessels (normalized to total CD31 positive small + medium vessel numbers in %): 98.1 ± 0.17%
  Number small + medium vessels with >10% Aβ, mean ± SEM: 288 ± 21.9
  Total number CD31+ vessels (normalized to total sample area, *10^5), mean ± SEM: 6.52 ± 0.4
  Total vessel-associated NT12 area (normalized to total small + medium CD31+ vessel area): 0.286 ± 0.0313
[1]
  % of vessels with 0% Aβ: 60.3 ± 3.49%
  % of vessels with 1-10% Aβ: 23.2 ± 2.6%
  % of vessels with 10-25% Aβ: 5.65 ± 0.8%
  % of vessels with 25-50% Aβ: 4.06 ± 0.44%
  % of vessels with 50-75% Aβ: 3.13 ± 0.35%
  % of vessels with >10% Aβ: 16.5 ± 0.76%
  % of vessels with >75% Aβ: 3.7 ± 0.55%
  CAA Frequency (number vessels with >10% Aβ normalized to sample area, *10^7): 94 ± 6.5
  Number vessels with >10% Aβ, mean ± SEM: 319 ± 22.2
  Total vessel-associated NT12 area (normalized to total CD31+ area): 0.65 ± 0.07
[2]
  CAA Frequency (number vessels with >10% Aβ normalized to sample area, *10^7): 9.3 ± 1.0
  Number vessels with >10% Aβ, mean ± SEM: 29 ± 3.0
  Total vessel-associated NT12 area (normalized to total CD31+ area): 0.79 ± 0.05
0.03 g/kg vs vehicle
  % of large vessels with 0% Aβ, treatment effect vs vehicle: −18%
  % of large vessels with 1-10% Aβ, treatment effect vs vehicle: +19%
  % of large vessels with 10-25% Aβ, treatment effect vs vehicle: +60%
  % of large vessels with 25-50% Aβ, treatment effect vs vehicle: −9%
  % of large vessels with 50-75% Aβ, treatment effect vs vehicle: −15%
  % of large vessels with >10% Aβ, treatment effect vs vehicle: −1%
  % of large vessels with >75% Aβ, treatment effect vs vehicle: +12%
  % of small + medium vessels with 0% Aβ, treatment effect vs vehicle: −13%
  % of small + medium vessels with 1-10% Aβ, treatment effect vs vehicle: +76%
  % of small + medium vessels with 10-25% Aβ, treatment effect vs vehicle: +16%
  % of small + medium vessels with 25-50% Aβ, treatment effect vs vehicle: −9%
  % of small + medium vessels with 50-75% Aβ, treatment effect vs vehicle: −6%
  % of small + medium vessels with >10% Aβ, treatment effect vs vehicle: +1%
  % of small + medium vessels with >75% Aβ, treatment effect vs vehicle: 0%
  Total small + medium vessel-associated NT12 area (normalized to total CD31+ small + medium vessel area), treatment effect vs vehicle: +6% n.s.
[3]
  % of vessels with 0% Aβ, treatment effect vs vehicle: −17%
  % of vessels with 1-10% Aβ, treatment effect vs vehicle: +82%
  % of vessels with 10-25% Aβ, treatment effect vs vehicle: +34%
  % of vessels with 25-50% Aβ, treatment effect vs vehicle: −2%
  % of vessels with 50-75% Aβ, treatment effect vs vehicle: 0%
  % of vessels with >10% Aβ, treatment effect vs vehicle: +12%
  % of vessels with >75% Aβ, treatment effect vs vehicle: +12%
  CAA Frequency, treatment effect vs vehicle: −4% n.s.
  Number vessels with >10% Aβ, treatment effect vs vehicle: −10% n.s.
  Total vessel-associated NT12 area (normalized to total CD31+ area), treatment effect vs vehicle: +14% n.s.
[4]
  CAA Frequency, treatment effect vs vehicle: +20% n.s.
  Number vessels with >10% Aβ, treatment effect vs vehicle: +4% n.s.
  Total vessel-associated NT12 area (normalized to total CD31+ area), treatment effect vs vehicle: −1% n.s.
[5]
  CAA Frequency, treatment effect vs vehicle: +2% n.s.
  Number vessels with >10% Aβ, treatment effect vs vehicle: −12% n.s.
